In brackets after ≈: the same amount, converted by molar mass. Entries after “also recorded” stand apart in the source; their conditions may differ. Where a SMILES comes first, the peptide text is derived from it.
Columns and labels:
[1] = test system: E. coli ATCC 25922, Salmonella Enteritidis, S. aureus ATCC 29213; assay: Broth microdilution, panel result (at least one / all strains), Example 2; format: cell-based; parameters: key to inhibitory activity (asterisk): *Indicates inhibitory activity; details: for inhibitory activity (asterisk): Table 14, against at least one of E. coli ATCC 25922, Salmonella Enteritidis, S. aureus ATCC 29213; for spectrum of antimicrobial activity: panel of E. coli, Salmonella Enteritidis, S. aureus, up to 128 μg/mL
Procedure, shortened: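 CLSI broth microdilution adapted for cationic peptides, in MHB with a final inoculum of 2-8×10^5 cfu/mL in polypropylene plates. Peptides were serially diluted from 128 down to 0.5 μg/mL and incubated 20-24 h at 37° C. MIC is the lowest concentration with no visible growth.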

[2] = test system: Escherichia coli ATCC 25922; assay: Antimicrobial susceptibility testing (MIC/MBC), Example 1; format: cell-based; details: Table 3; footnote: wild-type Escherichia coli ATCC 29522; minimum of three independent experiments
Method: Twenty-one putative AMP sequences identified using the rAMPage pipeline were validated through a minimum of three AST experiments performed independently on separate days. In these tests, the AMP activity was assessed using two metrics: minimum inhibitory concentration and minimum bactericidal concentration (MIC and MBC, respectively). MIC and MBC values were determined using procedures outlined by the Clinical and Laboratory Standards Institute (CLSI), with the recommended adaptations for the testing of cationic AMPs described previously. “Wild-type” strains of Escherichia coli (E. coli 25922) and Staphylococcus aureus (S. aureus 29213) were purchased from the American Type Culture Collection (ATCC; Manassas, VA, USA) and were used for screening of antimicrobial activity. Briefly, putative AMPs were synthesized by Genscript (Piscataway, NJ, USA) and received in lyophilized format. These peptides were suspended using ultrapure water (Life Technologies, Grand Island, NY, USA; Invitrogen cat #10977-015), and an 11 μL two-fold serial dilution of 1280 to 2.5 μg/mL was prepared in duplicate rows in a 96-well microtiter plate, before being combined with 100 μL standardized bacterial inoculum yielding a final duplicate testing range of 128 to 0.25 μg/mL. The bacterial inoculum was prepared using colonies isolated on non-selective agar and combined with Mueller Hinton Broth. This suspension was measured and adjusted to achieve an optical density of 0.08-0.1, equivalent to a 0.5 McFarland standard (1-2×10^8 cfu/mL). The inoculum was then diluted to a target concentration of 5±3×10^5 cfu/mL; total viable counts from the final inoculum were routinely performed to confirm the target bacterial density was achieved. […] The MIC and adjacent wells were plated onto non-selective agar; the concentration in which killed 99.9% of the inoculum following additional overnight incubation was determined to be the MBC.

[3] = test system: S. aureus ATCC 29213; format: cell-based, Staphylococcus aureus; details: for MIC (ug/mL) S. aureus: ATCC 29213
Procedure, shortened: (§1)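 CLSI broth microdilution adapted for cationic peptides, in Mueller-Hinton broth, inoculum 2-8×10^5 cfu/mL. Peptides serially diluted from 128 to 0.5 μg/mL in polypropylene plates, incubated 20-24 h at 37° C. MIC = lowest concentration without visible growth.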

[4] = test system: E. coli ATCC 25922; format: cell-based, Escherichia coli
Procedure, shortened: as §1

[5] = test system: Salmonella enterica serovar Enteritidis (human clinical isolate); format: cell-based; details: serovar Enteritidis (human clinical isolate)
Procedure, shortened: as §1

[6] = test system: HEK293 cells; assay: alamarBlue cell viability assay (cytotoxicity); format: cell-based, human; details: concentrations up to 128 μg/mL
Method: (§2) The human embryonic kidney cell line HEK293 and the corresponding growth media and supplements were purchased from the ATCC. The cells were maintained in Eagle's Minimum Essential Medium (EMEM) supplemented with 10% fetal bovine serum (FBS) and 1% Penicillin-Streptomycin solution and grown in a 5% CO2 incubator at 37° C. […] Cells were incubated overnight to allow them to adhere. […] TX-100 was diluted to 2% in UltraPure deionized water and added as a positive control. Complete growth medium was added to the peptides and TX-100 containing wells. Spent growth medium of wells with adhered cells was replaced with the contents of wells containing serially diluted peptides or TX-100. Cells were incubated for four hours at 37° C. in 5% CO2 incubator. Growth medium containing peptides or TX-100 was replaced with fresh growth medium containing 10% (v/v) alamarBlue (Bio-Rad Laboratories, Hercules, CA, USA) and incubated for 20 h. Fluorescence was measured at excitation of 540 nm and emission of 590 nm in a Cytation 5 plate reader (Agilent BioTek, Winooski, VT, USA) and results recorded and analyzed with Gen5 software (Agilent BioTek, Winooski, VT, USA). The average fluorescence reads of TX-100 and growth media only wells were used to calculate 0% and 100% cell viability, respectively. The percentage of viable cells at each peptide concentration was determined by Formula 1: […]

[7] = alamarBlue cell viability assay (cytotoxicity); format: cell-based, human; details: human, HEK293 cells; for viability at 4 h, 64 µg/mL: at 64 μg/mL; for viability at 4 h, 128 µg/mL: at 128 μg/mL
Method: as §2

| MIC (ug/mL) S. aureus [3] [µg/mL] | MIC against E. coli [4] [µg/mL] | MIC (ug/mL) S. Enteritidis [5] [µg/mL] | MIC against S. aureus [3] [µg/mL] | MIC (ug/mL) E. coli ([4]; ATCC 25922) [µg/mL] | SMILES | inhibitory activity (asterisk) [1] | MIC* (μg/mL) E. coli [2] [µg⁻¹ mL⁻¹] | spectrum of antimicrobial activity [1] | cytotoxicity [6] | viability at 4 h, 64 µg/mL [7] [%] | viability at 4 h, 128 µg/mL [7] [%] |
| --- | --- | --- | --- | --- | --- | --- | --- | --- | --- | --- | --- |
| – | 4 (≈ 1.99 µM) | 8 to 16 | 4 (≈ 1.99 µM) | – | CC(C)C[C@H](NC(=O)CNC(=O)[C@@H](NC(=O)[C@@H](NC(=O)CNC(=O)[C@H](CS)NC(=O)[C@H](CC(C)C)NC(=O)[C@@H](NC(=O)[C@H](CCCCN)NC(=O)[C@H](CCCCN)NC(=O)CNC(=O)[C@@H](NC(=O)CNC(=O)[C@H](CC(C)C)NC(=O)[C@@H](NC(=O)[C@H](CCCCN)NC(=O)CNC(=O)[C@H](CC(C)C)NC(=O)[C@H](CC(C)C)NC(=O)CN)C(C)C)C(C)C)C(C)C)C(C)C)[C@@H](C)O)C(=O)N[C@@H](CS)C(=O)O [PeNi1] (H-GLLGKVLGVGKKVLCGVTGLC-OH; N-terminus and C-terminus assumed) | 363.* GLLGKVLGVGKKVLCGVTGLC | – | active against all three bacteria | high levels of cytotoxicity at concentrations higher than their MICs | < 75 | ~0 |
| 4 to 8 | – | 8 to 16 | – | 2 to 4 | CC[C@H](C)[C@H](NC(=O)[C@H](CCCCN)NC(=O)CNC(=O)[C@H](CC(C)C)NC(=O)[C@H](CC(C)C)NC(=O)CN)C(=O)N[C@@H](CC(C)C)C(=O)NCC(=O)N[C@H](C(=O)NCC(=O)N[C@@H](CCCCN)C(=O)N[C@@H](CCCCN)C(=O)N[C@H](C(=O)N[C@@H](CC(C)C)C(=O)N[C@@H](CS)C(=O)NCC(=O)N[C@H](C(=O)N[C@@H](CO)C(=O)NCC(=O)N[C@@H](CC(C)C)C(=O)N[C@@H](CS)C(=O)O)C(C)C)C(C)C)C(C)C [PeNi9] (H-GLLGKILGVGKKVLCGVSGLC-OH; N-terminus and C-terminus assumed) | 32.* GLLGKILGVGKKVLCGVSGLC | – | active against all three bacteria | low or no cytotoxicity at lower concentrations; also recorded: high levels of cytotoxicity at concentrations higher than their MICs | – | 0 |

Second part, the molecule before the results:

| SMILES | MIC (ug/mL) S. aureus [3] [µg/mL] | MIC against E. coli [4] [µg/mL] | MIC (ug/mL) S. Enteritidis [5] [µg/mL] | MIC against S. aureus [3] [µg/mL] | MIC (ug/mL) E. coli ([4]; ATCC 25922) [µg/mL] | inhibitory activity (asterisk) [1] | MIC* (μg/mL) E. coli [2] [µg⁻¹ mL⁻¹] | spectrum of antimicrobial activity [1] | cytotoxicity [6] | viability at 4 h, 64 µg/mL [7] [%] | viability at 4 h, 128 µg/mL [7] [%] |
| --- | --- | --- | --- | --- | --- | --- | --- | --- | --- | --- | --- |
| CC[C@H](C)[C@H](NC(=O)CN)C(=O)N[C@@H](CC(C)C)C(=O)N[C@@H](CC(=O)O)C(=O)N[C@H](C(=O)N[C@@H](CC(C)C)C(=O)N[C@@H](CCCCN)C(=O)N[C@@H](CCC(N)=O)C(=O)N[C@@H](CC(C)C)C(=O)NCC(=O)N[C@@H](CCCCN)C(=O)N[C@@H](C)C(=O)N[C@@H](C)C(=O)N[C@H](C(=O)N[C@@H](CCC(N)=O)C(=O)NCC(=O)N[C@@H](CC(C)C)C(=O)N[C@@H](CC(C)C)C(=O)N[C@@H](CO)C(=O)N[C@@H](CCCCN)C(=O)N[C@@H](C)C(=O)N[C@@H](C)C(=O)N[C@@H](CS)C(=O)N[C@@H](CCCCN)C(=O)N[C@@H](CC(C)C)C(=O)N[C@@H](C)C(=O)N[C@@H](CCCCN)C(=O)N[C@H](C(=O)N[C@@H](CS)C(=O)O)[C@@H](C)O)C(C)C)[C@@H](C)O [AmMa1] (H-GILDTLKQLGKAAVQGLLSKAACKLAKTC-OH; N-terminus and C-terminus assumed) | – | – | – | – | – | 12.* GILDTLKQLGKAAVQGLLSKAACKLAKTC | 2 to 4 | – | – | – | – |
| CC[C@H](C)[C@H](NC(=O)CNC(=O)[C@H](CCCNC(=N)N)NC(=O)[C@H](CC(C)C)NC(=O)[C@H](CC(C)C)NC(=O)CN)C(=O)N[C@@H](CC(C)C)C(=O)NCC(=O)N[C@@H](C)C(=O)NCC(=O)N[C@@H](CCCCN)C(=O)N[C@@H](CCCCN)C(=O)N[C@H](C(=O)N[C@H](C(=O)N[C@@H](CS)C(=O)NCC(=O)N[C@@H](CC(C)C)C(=O)N[C@@H](CO)C(=O)NCC(=O)N[C@@H](CC(C)C)C(=O)N[C@@H](CS)C(=O)O)C(C)C)[C@@H](C)CC [OdMa2] (H-GLLRGILGAGKKIVCGLSGLC-OH; N-terminus and C-terminus assumed) | 4 to 8 | 4 (≈ 1.97 µM) | 8 to 16 | – | – | 64.* GLLRGILGAGKKIVCGLSGLC | – | active against all three bacteria | high levels of cytotoxicity at concentrations higher than their MICs | < 75 | ~0 |
| CC[C@H](C)[C@H](NC(=O)[C@H](CCCCN)NC(=O)[C@H](CS)NC(=O)[C@H](CCCCN)NC(=O)[C@H](CC(C)C)NC(=O)[C@H](CC(N)=O)NC(=O)[C@H](Cc1ccc(O)cc1)NC(=O)[C@H](CC(C)C)NC(=O)[C@H](CC(C)C)NC(=O)[C@@H](NC(=O)[C@@H](NC(=O)[C@H](C)NC(=O)[C@@H](NC(=O)[C@H](CC(N)=O)NC(=O)[C@H](CCCCN)NC(=O)[C@H](C)NC(=O)[C@@H](NC(=O)[C@H](CC(N)=O)NC(=O)[C@H](CCCCN)NC(=O)[C@H](C)NC(=O)[C@@H](NC(=O)[C@H](CC(=O)O)NC(=O)[C@H](CCSC)NC(=O)[C@H](Cc1ccccc1)NC(=O)CN)[C@@H](C)O)C(C)C)C(C)C)C(C)C)[C@@H](C)O)C(=O)N[C@H](C(=O)N[C@@H](CCCCN)C(=O)N[C@@H](C)C(=O)N[C@@H](CS)C(=O)O)[C@@H](C)O [OdMa12] (H-GFMDTAKNVAKNVAVTLLYNLKCKITKAC-OH; N-terminus and C-terminus assumed) | – | – | – | – | – | 69.* GFMDTAKNVAKNVAVTLLYNLKCKITKAC | 4 | – | – | – | – |
| CC[C@H](C)[C@H](NC(=O)CNC(=O)[C@H](C)NC(=O)[C@@H](NC(=O)[C@H](CC(N)=O)NC(=O)[C@H](CCCCN)NC(=O)[C@H](C)NC(=O)[C@H](C)NC(=O)CNC(=O)[C@H](CCCCN)NC(=O)[C@@H](NC(=O)[C@@H](NC(=O)[C@H](CC(=O)O)NC(=O)[C@H](CC(C)C)NC(=O)[C@H](CC(C)C)NC(=O)[C@H](CC(C)C)NC(=O)CN)[C@@H](C)O)C(C)C)C(C)C)C(=O)N[C@@H](CC(C)C)C(=O)N[C@@H](CC(C)C)C(=O)N[C@@H](CC(N)=O)C(=O)N[C@@H](CCCCN)C(=O)N[C@@H](CC(C)C)C(=O)N[C@@H](CCCCN)C(=O)N[C@@H](CS)C(=O)N[C@@H](CCCCN)C(=O)N[C@H](C(=O)N[C@H](C(=O)NCC(=O)N[C@@H](CC(=O)O)C(=O)N[C@@H](CS)C(=O)O)[C@@H](C)O)C(C)C [PeNi10] (H-GLLLDTVKGAAKNVAGILLNKLKCKVTGDC-OH; N-terminus and C-terminus assumed) | – | – | – | – | – | 1086.* GLLLDTVKGAAKNVAGILLNKLKCKVTGDC | 8 | – | – | – | – |

Reference: patent US20260242416A1, “ANTIMICROBIAL PEPTIDES” (priority 2023, published 2026)
